Laboratory results published in article PMC4770715, “LIM kinase inhibitors disrupt mitotic microtubule organization and impair tumor cell proliferation” (Oncotarget, 2015).

Tests used:
[1] = biological target: LIMK2 (Homo sapiens, UniProt P53671); assay: in vitro kinase enzyme assay; type: biochemical
[2] = biological target: T1, LIMK1 (Homo sapiens, UniProt P53667); assay: in vitro kinase enzyme assay; type: biochemical
[3] = biological target: T1, LIMK1; assay: biochemical; design: KINOMEscan active-site competition binding, percent of control (100 = no competition); details: competition binding, percent control
From the text: Kinases inhibited >25% to 50% have yellow circles, 51% to 75% have orange circles, and >76% have red circles. In each case, the size of the circle is proportional to percentage inhibition.

[4] = biological target: SNRK (Homo sapiens, UniProt Q9NRH2); assay: biochemical; design: KINOMEscan active-site competition binding, percent of control (100 = no competition); details: competition binding, percent control
Chain of SNRK (Q9NRH2 whole entry): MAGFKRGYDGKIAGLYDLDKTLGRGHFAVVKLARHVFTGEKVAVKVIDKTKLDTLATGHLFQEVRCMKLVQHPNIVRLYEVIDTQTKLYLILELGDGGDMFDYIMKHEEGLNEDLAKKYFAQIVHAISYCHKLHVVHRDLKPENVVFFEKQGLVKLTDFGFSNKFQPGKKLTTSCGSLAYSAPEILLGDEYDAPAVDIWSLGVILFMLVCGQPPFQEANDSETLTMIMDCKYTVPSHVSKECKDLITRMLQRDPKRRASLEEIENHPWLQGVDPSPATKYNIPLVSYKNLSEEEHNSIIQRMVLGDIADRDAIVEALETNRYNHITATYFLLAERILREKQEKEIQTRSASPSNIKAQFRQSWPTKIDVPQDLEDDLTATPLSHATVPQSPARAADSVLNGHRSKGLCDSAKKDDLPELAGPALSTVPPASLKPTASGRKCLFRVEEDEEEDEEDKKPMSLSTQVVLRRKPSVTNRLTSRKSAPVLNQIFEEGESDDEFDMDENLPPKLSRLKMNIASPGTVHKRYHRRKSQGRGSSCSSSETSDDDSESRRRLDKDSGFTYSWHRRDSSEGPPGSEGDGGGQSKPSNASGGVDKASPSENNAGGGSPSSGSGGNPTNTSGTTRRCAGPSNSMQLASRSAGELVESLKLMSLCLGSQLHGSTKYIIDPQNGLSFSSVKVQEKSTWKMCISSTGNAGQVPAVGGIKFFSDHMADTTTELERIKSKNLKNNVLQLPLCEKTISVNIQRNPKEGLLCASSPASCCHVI

[5] = biological target: T2, DCAMKL2 (Homo sapiens, UniProt Q8N568); assay: biochemical; design: KINOMEscan active-site competition binding, percent of control (100 = no competition); details: competition binding, percent control
T2 construct: gene DCLK2
T2 sequence (Q8N568 whole entry): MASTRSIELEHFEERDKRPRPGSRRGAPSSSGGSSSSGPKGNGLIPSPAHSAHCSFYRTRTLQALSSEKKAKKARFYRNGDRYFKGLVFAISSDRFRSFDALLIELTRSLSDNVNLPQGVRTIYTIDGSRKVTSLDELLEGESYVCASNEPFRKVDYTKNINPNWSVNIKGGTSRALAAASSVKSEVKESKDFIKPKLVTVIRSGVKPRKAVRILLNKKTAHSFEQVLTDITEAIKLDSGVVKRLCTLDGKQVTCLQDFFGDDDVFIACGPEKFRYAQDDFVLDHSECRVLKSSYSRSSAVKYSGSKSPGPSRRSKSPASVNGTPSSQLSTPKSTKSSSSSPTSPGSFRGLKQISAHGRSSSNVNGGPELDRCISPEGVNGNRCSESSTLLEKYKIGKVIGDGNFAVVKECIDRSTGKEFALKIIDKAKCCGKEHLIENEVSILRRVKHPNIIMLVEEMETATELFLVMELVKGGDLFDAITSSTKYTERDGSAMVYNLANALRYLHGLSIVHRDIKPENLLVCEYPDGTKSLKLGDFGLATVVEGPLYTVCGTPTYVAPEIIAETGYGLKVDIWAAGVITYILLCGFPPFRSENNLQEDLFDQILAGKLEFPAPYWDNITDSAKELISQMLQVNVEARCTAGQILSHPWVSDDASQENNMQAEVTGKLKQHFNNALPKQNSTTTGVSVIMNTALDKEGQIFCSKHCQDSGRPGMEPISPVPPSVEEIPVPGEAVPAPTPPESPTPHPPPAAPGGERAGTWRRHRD

[6] = biological target: NEK11 (Homo sapiens, UniProt Q8NG66); assay: biochemical; design: KINOMEscan active-site competition binding, percent of control (100 = no competition); details: competition binding, percent control
[7] = biological target: CASK (Homo sapiens, UniProt O14936); assay: biochemical; design: KINOMEscan active-site competition binding, percent of control (100 = no competition); details: competition binding, percent control
Chain of CASK (O14936 whole entry): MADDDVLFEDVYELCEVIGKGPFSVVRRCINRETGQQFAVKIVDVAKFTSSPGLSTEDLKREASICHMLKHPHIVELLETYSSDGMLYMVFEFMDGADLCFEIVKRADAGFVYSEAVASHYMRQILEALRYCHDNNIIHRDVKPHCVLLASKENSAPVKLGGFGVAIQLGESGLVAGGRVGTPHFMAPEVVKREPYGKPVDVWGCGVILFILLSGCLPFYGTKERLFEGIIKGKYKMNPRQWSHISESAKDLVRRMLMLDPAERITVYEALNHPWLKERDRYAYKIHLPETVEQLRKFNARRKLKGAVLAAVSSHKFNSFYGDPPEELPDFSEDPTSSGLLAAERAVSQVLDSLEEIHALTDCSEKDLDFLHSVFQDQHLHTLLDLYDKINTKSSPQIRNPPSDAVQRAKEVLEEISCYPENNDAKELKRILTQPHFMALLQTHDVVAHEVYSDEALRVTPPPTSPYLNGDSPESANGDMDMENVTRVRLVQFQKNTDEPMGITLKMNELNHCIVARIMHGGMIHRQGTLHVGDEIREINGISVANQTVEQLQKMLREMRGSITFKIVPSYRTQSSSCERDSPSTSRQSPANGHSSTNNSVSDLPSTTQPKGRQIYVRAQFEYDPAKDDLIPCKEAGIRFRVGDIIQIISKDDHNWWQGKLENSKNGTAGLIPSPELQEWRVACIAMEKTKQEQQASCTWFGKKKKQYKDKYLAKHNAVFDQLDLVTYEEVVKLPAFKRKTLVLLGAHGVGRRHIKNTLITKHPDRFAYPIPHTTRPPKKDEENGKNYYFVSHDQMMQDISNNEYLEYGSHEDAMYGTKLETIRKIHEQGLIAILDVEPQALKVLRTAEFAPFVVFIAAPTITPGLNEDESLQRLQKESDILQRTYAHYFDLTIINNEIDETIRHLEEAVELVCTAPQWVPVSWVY

[8] = biological target: PIK3C2G (Homo sapiens, UniProt O75747); assay: biochemical; design: KINOMEscan active-site competition binding, percent of control (100 = no competition); details: competition binding, percent control
[9] = biological target: T3, ABL1(F317L)-phosphorylated (Homo sapiens, UniProt P00519, F317L); assay: biochemical; design: KINOMEscan active-site competition binding, percent of control (100 = no competition); details: competition binding, percent control
T3 construct: phosphorylated
T3 sequence (P00519 whole entry F317L): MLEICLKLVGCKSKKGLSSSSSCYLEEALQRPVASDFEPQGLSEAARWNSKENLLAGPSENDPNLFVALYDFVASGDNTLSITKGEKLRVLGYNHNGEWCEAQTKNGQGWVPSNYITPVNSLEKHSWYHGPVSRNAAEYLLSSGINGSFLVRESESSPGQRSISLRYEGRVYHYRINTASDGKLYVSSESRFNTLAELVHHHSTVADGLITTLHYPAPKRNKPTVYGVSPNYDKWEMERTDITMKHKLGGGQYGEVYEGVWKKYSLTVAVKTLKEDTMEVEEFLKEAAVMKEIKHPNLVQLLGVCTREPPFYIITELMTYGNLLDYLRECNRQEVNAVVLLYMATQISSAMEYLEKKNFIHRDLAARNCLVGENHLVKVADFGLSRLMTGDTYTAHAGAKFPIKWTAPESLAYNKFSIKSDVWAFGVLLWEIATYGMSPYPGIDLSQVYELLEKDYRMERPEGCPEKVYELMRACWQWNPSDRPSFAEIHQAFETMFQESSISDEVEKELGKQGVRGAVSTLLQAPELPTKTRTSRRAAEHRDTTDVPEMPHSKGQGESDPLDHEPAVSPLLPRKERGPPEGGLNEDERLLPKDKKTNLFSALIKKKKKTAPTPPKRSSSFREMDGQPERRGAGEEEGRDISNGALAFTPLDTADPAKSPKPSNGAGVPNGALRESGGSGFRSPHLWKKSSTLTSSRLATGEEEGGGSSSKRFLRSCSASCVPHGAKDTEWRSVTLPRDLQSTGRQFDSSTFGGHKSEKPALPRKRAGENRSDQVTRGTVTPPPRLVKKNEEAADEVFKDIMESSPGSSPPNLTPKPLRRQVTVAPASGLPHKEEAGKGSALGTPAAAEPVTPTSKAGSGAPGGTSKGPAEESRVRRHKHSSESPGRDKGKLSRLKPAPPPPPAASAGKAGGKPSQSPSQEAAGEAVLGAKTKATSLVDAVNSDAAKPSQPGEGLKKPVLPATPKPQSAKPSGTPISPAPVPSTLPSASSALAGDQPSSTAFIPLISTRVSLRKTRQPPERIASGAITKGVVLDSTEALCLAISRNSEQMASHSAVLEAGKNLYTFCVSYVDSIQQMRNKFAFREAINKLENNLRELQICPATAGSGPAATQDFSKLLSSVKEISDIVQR

[10] = biological target: PRKCQ (Homo sapiens, UniProt Q04759); assay: biochemical; design: KINOMEscan active-site competition binding, percent of control (100 = no competition); details: competition binding, percent control

T1 sequence (P53667 whole entry): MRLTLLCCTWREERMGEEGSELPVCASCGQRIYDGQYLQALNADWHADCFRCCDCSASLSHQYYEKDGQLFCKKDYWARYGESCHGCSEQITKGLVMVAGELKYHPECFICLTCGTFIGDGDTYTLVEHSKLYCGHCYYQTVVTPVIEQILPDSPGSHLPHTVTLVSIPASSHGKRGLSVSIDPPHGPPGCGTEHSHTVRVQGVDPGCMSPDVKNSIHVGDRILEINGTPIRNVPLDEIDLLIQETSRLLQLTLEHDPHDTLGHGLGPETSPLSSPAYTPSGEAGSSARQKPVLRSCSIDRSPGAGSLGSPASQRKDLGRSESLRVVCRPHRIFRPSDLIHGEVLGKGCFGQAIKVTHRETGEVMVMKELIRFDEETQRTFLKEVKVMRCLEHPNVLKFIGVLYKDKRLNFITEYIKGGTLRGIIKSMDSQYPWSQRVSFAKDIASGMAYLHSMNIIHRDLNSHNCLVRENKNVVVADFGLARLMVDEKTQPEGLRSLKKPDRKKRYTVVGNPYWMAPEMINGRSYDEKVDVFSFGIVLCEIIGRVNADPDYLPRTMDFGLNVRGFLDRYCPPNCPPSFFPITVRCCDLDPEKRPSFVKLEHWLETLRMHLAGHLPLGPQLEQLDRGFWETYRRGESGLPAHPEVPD
Chain of LIMK2 (P53671 whole entry): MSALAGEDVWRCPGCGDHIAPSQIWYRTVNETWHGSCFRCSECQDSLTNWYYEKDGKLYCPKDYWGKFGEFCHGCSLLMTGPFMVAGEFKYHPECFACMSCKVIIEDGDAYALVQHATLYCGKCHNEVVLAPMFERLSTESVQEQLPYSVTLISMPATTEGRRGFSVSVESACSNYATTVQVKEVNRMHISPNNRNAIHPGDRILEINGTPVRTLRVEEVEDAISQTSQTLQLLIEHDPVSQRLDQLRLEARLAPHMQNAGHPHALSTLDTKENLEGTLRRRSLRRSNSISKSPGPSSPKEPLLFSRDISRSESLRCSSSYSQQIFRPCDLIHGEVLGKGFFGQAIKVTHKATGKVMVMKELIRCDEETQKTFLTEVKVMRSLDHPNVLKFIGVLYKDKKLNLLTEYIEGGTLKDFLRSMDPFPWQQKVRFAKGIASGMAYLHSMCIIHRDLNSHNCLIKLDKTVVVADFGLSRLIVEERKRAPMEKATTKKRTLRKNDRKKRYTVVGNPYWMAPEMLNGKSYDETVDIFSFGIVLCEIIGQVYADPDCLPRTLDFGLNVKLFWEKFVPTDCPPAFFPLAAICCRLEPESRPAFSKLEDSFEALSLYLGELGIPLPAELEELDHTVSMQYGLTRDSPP

Row | Compound | IC50 [1] [nM] | IC50 [2] [nM] | remaining binding at 10 µM [3] [%] | remaining binding at 10 µM [4] [%] | remaining binding at 10 µM [5] [%] | remaining binding at 10 µM [6] [%] | remaining binding at 10 µM [7] [%] | remaining binding at 10 µM [8] [%] | remaining binding at 10 µM [9] [%] | remaining binding at 10 µM [10] [%]
1 | COc1ccc(-c2cnccc2-c2cnc(NC(=O)C(C)C)s2)c(C(F)(F)F)c1 [CRT0105446, N-{5-[3-(4-Methoxy-2-trifluoromethyl-phenyl)-pyridin-4-yl]-hiazol-2-yl}-isobutyramide] | 32 | 8 | 2 | 81 | 39 | 100 | 1.2 | 100 | 89 | 74
2 | Cc1ccc(-c2cnccc2-c2cnc(Nc3ccc(O)cc3)s2)c(Cl)c1 [CRT0105950, 4-{5-[3-(2-Chloro-4-methyl-phenyl)-pyridin-4-yl]-thiazol-2-ylamino}-phenol] | 1 | – | – | 100 | 77 | 84 | 13 | 95 | 67 | 13
